Earlier results on 4 molecules are cited in patent US20260146084A1, “METHODS FOR TREATING MYELOFIBROSIS AND RELATED CONDITIONS” (Disc Medicine, Inc., priority 2019, published 2026).

Data set [1] has as its system pro-inflammatory cytokines. Particulars: mouse models.
The target in data set [2] is T1, ACVR1 (HJV signaling partner) (Homo sapiens, UniProt Q04771).
T1 sequence (Q04771 21-509): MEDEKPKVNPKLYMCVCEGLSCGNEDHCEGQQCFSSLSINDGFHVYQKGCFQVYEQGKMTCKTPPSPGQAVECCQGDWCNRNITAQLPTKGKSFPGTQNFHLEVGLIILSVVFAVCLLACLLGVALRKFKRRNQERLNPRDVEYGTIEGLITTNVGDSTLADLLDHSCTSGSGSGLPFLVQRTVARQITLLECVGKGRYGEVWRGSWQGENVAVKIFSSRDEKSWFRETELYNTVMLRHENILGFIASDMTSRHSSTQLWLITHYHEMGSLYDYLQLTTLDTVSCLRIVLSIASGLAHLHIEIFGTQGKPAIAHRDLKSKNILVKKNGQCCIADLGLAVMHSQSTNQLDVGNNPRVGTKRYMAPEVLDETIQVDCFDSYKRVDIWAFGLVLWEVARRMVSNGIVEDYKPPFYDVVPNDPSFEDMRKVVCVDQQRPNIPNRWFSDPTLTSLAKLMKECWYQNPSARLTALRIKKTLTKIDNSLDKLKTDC

For a further data set, the target named is JAK2 (Homo sapiens, UniProt O60674).
The next data set addresses JAK1 (Homo sapiens, UniProt P23458).

Chain of JAK1 (P23458 whole entry): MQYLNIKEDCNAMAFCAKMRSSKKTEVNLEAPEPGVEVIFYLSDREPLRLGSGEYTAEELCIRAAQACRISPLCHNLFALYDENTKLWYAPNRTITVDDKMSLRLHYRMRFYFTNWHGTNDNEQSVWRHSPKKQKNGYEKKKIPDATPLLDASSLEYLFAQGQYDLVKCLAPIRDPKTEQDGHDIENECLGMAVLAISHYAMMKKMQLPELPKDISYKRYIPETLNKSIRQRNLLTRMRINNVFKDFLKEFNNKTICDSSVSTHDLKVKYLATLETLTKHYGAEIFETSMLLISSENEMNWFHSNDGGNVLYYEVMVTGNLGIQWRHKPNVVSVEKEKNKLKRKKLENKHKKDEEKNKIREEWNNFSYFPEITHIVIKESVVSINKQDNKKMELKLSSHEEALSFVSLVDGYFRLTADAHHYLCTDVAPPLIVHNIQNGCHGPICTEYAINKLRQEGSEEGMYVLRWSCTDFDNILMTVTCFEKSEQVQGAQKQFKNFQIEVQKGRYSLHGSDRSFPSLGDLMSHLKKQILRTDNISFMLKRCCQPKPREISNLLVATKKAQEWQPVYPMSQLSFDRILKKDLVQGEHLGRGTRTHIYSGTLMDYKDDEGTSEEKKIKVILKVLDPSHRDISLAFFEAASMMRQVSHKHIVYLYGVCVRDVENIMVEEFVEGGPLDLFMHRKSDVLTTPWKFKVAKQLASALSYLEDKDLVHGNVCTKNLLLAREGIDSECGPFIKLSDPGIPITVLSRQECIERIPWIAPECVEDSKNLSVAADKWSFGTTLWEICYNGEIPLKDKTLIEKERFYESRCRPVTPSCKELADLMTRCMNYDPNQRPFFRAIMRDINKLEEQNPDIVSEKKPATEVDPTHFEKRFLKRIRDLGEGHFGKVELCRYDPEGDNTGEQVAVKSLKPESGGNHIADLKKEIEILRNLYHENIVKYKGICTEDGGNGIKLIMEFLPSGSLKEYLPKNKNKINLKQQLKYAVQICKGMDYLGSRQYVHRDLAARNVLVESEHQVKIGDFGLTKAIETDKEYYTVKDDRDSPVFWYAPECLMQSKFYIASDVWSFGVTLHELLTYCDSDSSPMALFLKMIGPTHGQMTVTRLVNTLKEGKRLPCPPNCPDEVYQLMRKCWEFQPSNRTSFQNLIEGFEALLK
Chain of JAK2 (O60674 whole entry): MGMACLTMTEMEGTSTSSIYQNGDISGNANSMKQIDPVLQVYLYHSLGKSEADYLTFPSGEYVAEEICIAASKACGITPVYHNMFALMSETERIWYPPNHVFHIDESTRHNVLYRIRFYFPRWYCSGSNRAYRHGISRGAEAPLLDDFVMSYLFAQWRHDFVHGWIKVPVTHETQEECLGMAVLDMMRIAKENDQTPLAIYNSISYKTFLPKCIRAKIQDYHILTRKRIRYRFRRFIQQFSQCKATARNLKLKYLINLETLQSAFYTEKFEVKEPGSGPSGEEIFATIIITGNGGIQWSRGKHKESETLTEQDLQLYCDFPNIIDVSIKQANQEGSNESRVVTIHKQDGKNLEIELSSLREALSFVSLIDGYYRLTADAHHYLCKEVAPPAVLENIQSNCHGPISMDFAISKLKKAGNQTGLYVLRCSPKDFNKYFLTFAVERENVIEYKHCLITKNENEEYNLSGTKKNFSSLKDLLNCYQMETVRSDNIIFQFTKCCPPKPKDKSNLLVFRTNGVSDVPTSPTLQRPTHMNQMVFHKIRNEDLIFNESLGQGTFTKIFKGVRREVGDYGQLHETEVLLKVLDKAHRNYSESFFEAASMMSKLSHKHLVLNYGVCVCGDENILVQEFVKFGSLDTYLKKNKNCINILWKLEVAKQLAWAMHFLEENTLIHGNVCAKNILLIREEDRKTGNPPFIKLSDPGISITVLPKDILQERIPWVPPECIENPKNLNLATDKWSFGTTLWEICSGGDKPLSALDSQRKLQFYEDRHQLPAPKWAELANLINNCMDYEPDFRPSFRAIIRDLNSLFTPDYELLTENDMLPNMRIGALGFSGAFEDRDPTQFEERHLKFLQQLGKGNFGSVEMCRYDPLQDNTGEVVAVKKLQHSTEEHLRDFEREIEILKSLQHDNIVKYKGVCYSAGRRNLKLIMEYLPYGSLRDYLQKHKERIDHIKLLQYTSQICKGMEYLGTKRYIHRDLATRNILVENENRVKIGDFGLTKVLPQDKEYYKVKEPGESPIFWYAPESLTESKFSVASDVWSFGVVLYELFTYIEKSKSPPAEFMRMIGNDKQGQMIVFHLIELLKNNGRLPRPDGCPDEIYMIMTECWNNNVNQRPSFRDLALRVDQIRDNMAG

As for `Cc1noc2c1-c1ccccc1C(c1ccc(Cl)cc1)=N[C@H]2CC(N)=O` [CP-0610], in data set [1], the pro-inflammatory cytokines entry was “downregulated pro-inflammatory cytokines”.

Take `Cc1cnc(Nc2ccc(OCCN3CCCC3)cc2)nc1Nc1cccc(S(=O)(=O)NC(C)(C)C)c1` [Fedratinib]: the effect on anemia entry in the data set on myelofibrosis patients is recorded as “worsens anemia”.

As to `N#CCNC(=O)c1ccc(-c2ccnc(Nc3ccc(N4CCOCC4)cc3)n2)cc1` [Momelotinib], in the data set on myelofibrosis patients, the effect on anemia entry was “improves anemia”; the “effect on splenomegaly and disease symptoms” value is on record as “improving disease symptoms”. The “inhibition of ACVR1” value in data set [2] is on record as “inhibits”. Further, the “inhibition of JAK2” value on JAK2 is “inhibits”. Further, on JAK1, the “inhibition of JAK1” value is recorded as “inhibits”.

Regarding `N#CC[C@H](C1CCCC1)n1cc(-c2ncnc3[nH]ccc23)cn1` [ruxolitinib], in the data set on myelofibrosis patients, the effect on anemia result is listed as “worsens anemia”.
